PubChem BioAssay AID2060611 (Molecular Pharmacology Branch, DTP, NCI, 2025)

Test system: 628569-122-R-J1-PDC complex spheroid viability
Assay: Anticancer human tumor 628569-122-R-J1-PDC patient-derived head and neck squamous carcinoma cell line growth inhibition [CLK]
Conditions: for IC50: curve of first compound; for viability, T/C: stronger effect = lower value
How it was run: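 Patient-derived tumor cells grown as complex spheroids with HUVEC endothelial cells and mesenchymal stem cells, treated with drug combinations. Concentrations descend in half-log steps from near clinical Cmax, or from 10 microM if Cmax unknown.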

[1] = second compound 0.0316 µM, first compound 0.0316 µM
[2] = second compound 0.0316 µM, first compound 0.1 µM
[3] = second compound 0.0316 µM, first compound 0.316 µM
[4] = second compound 0.0316 µM, first compound 1 µM
[5] = second compound 0.0316 µM, first compound 3.16 µM
[6] = second compound 0.0316 µM, first compound 10 µM
[7] = second compound 0.1 µM, first compound 0.0316 µM
[8] = second compound 0.1 µM, first compound 0.1 µM
[9] = second compound 0.1 µM, first compound 0.316 µM
[10] = second compound 0.1 µM, first compound 1 µM
[11] = second compound 0.1 µM, first compound 3.16 µM
[12] = second compound 0.1 µM, first compound 10 µM
[13] = second compound 0.316 µM, first compound 0.0316 µM
[14] = second compound 0.316 µM, first compound 0.1 µM
[15] = second compound 0.316 µM, first compound 0.316 µM
[16] = second compound 0.316 µM, first compound 1 µM
[17] = second compound 0.316 µM, first compound 3.16 µM
[18] = second compound 0.316 µM, first compound 10 µM
[19] = second compound 1 µM, first compound 0.0316 µM
[20] = second compound 1 µM, first compound 0.1 µM
[21] = second compound 1 µM, first compound 0.316 µM
[22] = second compound 1 µM, first compound 1 µM
[23] = second compound 1 µM, first compound 3.16 µM
[24] = second compound 1 µM, first compound 10 µM
[25] = second compound 3.16 µM, first compound 0.0316 µM
[26] = second compound 3.16 µM, first compound 0.1 µM
[27] = second compound 3.16 µM, first compound 0.316 µM
[28] = second compound 3.16 µM, first compound 1 µM
[29] = second compound 3.16 µM, first compound 3.16 µM
[30] = second compound 3.16 µM, first compound 10 µM
[31] = second compound 10 µM, first compound 0.0316 µM
[32] = second compound 10 µM, first compound 0.1 µM
[33] = second compound 10 µM, first compound 0.316 µM
[34] = second compound 10 µM, first compound 1 µM
[35] = second compound 10 µM, first compound 3.16 µM
[36] = second compound 10 µM, first compound 10 µM
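Note: spheroids exposed to agents for seven days before readout.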
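Throughout, for viability, T/C: 100% = DMSO vehicle control viability.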

## CC(=O)O[C@H]1C(=O)[C@@]2(C)[C@H]([C@H](OC(=O)c3ccccc3)[C@]3(O)C[C@H](OC(=O)[C@H](O)[C@@H](NC(=O)c4ccccc4)c4ccccc4)C(C)=C1C3(C)C)[C@]1(OC(C)=O)CO[C@@H]1C[C@@H]2O + CNC(=O)c1ccc(Nc2nc(OC3CCCC3)c3c(-c4ccc5nc(C)oc5c4)c[nH]c3n2)c(OC)c1
Second compound 0.0316 µM
  IC50: < 31.6 nM
Second compound 0.1 µM
  IC50: < 31.6 nM
Second compound 0.316 µM
  IC50: < 31.6 nM
Second compound 1 µM
  IC50: < 31.6 nM
Second compound 3.16 µM
  IC50: < 31.6 nM
Second compound 10 µM
  IC50: < 31.6 nM
[1]
  viability, T/C: 34.6%
[2]
  viability, T/C: 33.5%
[3]
  viability, T/C: 36.6%
[4]
  viability, T/C: 35.9%
[5]
  viability, T/C: 36.5%
[6]
  viability, T/C: 59%
[7]
  viability, T/C: 50.4%
[8]
  viability, T/C: 47.4%
[9]
  viability, T/C: 49.6%
[10]
  viability, T/C: 55.5%
[11]
  viability, T/C: 67.9%
[12]
  viability, T/C: 68.4%
[13]
  viability, T/C: 43.1%
[14]
  viability, T/C: 55.3%
[15]
  viability, T/C: 59.7%
[16]
  viability, T/C: 63.9%
[17]
  viability, T/C: 72.9%
[18]
  viability, T/C: 72.9%
[19]
  viability, T/C: 41.4%
[20]
  viability, T/C: 53%
[21]
  viability, T/C: 55.2%
[22]
  viability, T/C: 57.6%
[23]
  viability, T/C: 57.9%
[24]
  viability, T/C: 68.5%
[25]
  viability, T/C: 44.8%
[26]
  viability, T/C: 51.6%
[27]
  viability, T/C: 56.8%
[28]
  viability, T/C: 56.6%
[29]
  viability, T/C: 60.9%
[30]
  viability, T/C: 64.7%
[31]
  viability, T/C: 41.2%
[32]
  viability, T/C: 47%
[33]
  viability, T/C: 55.3%
[34]
  viability, T/C: 64.2%
[35]
  viability, T/C: 65%
[36]
  viability, T/C: 69.9%

## CCc1c2c(nc3ccc(O)cc13)-c1cc3c(c(=O)n1C2)COC(=O)[C@]3(O)CC + CNC(=O)c1ccc(Nc2nc(OC3CCCC3)c3c(-c4ccc5nc(C)oc5c4)c[nH]c3n2)c(OC)c1
Second compound 0.0316 µM
  IC50: 326 nM
Second compound 0.1 µM
  IC50: 61.5 nM
Second compound 0.316 µM
  IC50: 10.7 nM
Second compound 1 µM
  IC50: < 3.16 nM
Second compound 3.16 µM
  IC50: < 3.16 nM
Second compound 10 µM
  IC50: < 3.16 nM
Second compound 0.0316 µM, first compound 0.00316 µM
  viability, T/C: 62.2%
Second compound 0.0316 µM, first compound 0.01 µM
  viability, T/C: 47.5%
[1]
  viability, T/C: 53.5%
[2]
  viability, T/C: 46.6%
[3]
  viability, T/C: 51.5%
[4]
  viability, T/C: 11.4%
Second compound 0.1 µM, first compound 0.00316 µM
  viability, T/C: 56.6%
Second compound 0.1 µM, first compound 0.01 µM
  viability, T/C: 51.1%
[7]
  viability, T/C: 55.2%
[8]
  viability, T/C: 43.1%
[9]
  viability, T/C: 42%
[10]
  viability, T/C: 13.9%
Second compound 0.316 µM, first compound 0.00316 µM
  viability, T/C: 54.2%
Second compound 0.316 µM, first compound 0.01 µM
  viability, T/C: 49.4%
[13]
  viability, T/C: 42.8%
[14]
  viability, T/C: 44.4%
[15]
  viability, T/C: 31.9%
[16]
  viability, T/C: 21.8%
Second compound 1 µM, first compound 0.00316 µM
  viability, T/C: 38.8%
Second compound 1 µM, first compound 0.01 µM
  viability, T/C: 42.2%
[19]
  viability, T/C: 40.2%
[20]
  viability, T/C: 34.2%
[21]
  viability, T/C: 26.1%
[22]
  viability, T/C: 11.1%
Second compound 3.16 µM, first compound 0.00316 µM
  viability, T/C: 39.8%
Second compound 3.16 µM, first compound 0.01 µM
  viability, T/C: 40%
[25]
  viability, T/C: 36.4%
[26]
  viability, T/C: 39.2%
[27]
  viability, T/C: 29.7%
[28]
  viability, T/C: 7.37%
Second compound 10 µM, first compound 0.00316 µM
  viability, T/C: 38.7%
Second compound 10 µM, first compound 0.01 µM
  viability, T/C: 41.8%
[31]
  viability, T/C: 37.1%
[32]
  viability, T/C: 33.5%
[33]
  viability, T/C: 24.5%
[34]
  viability, T/C: 6.76%

## COc1cccc2c1C(=O)c1c(O)c3c(c(O)c1C2=O)CC(O)(C(=O)CO)CC3OC1CC(N)C(O)C(C)O1 (stereo unspecified) + CNC(=O)c1ccc(Nc2nc(OC3CCCC3)c3c(-c4ccc5nc(C)oc5c4)c[nH]c3n2)c(OC)c1
Second compound 0.0316 µM
  IC50: 479 nM
Second compound 0.1 µM
  IC50: 446 nM
Second compound 0.316 µM
  IC50: 373 nM
Second compound 1 µM
  IC50: 31.6 nM
Second compound 3.16 µM
  IC50: < 31.6 nM
Second compound 10 µM
  IC50: < 31.6 nM
[1]
  viability, T/C: 65.1%
[2]
  viability, T/C: 56.3%
[3]
  viability, T/C: 88.3%
[4]
  viability, T/C: 12.9%
[5]
  viability, T/C: 19.5%
[6]
  viability, T/C: 11.4%
[7]
  viability, T/C: 49.7%
[8]
  viability, T/C: 62.8%
[9]
  viability, T/C: 91.8%
[10]
  viability, T/C: 5.99%
[11]
  viability, T/C: 11.4%
[12]
  viability, T/C: 5.02%
[13]
  viability, T/C: 47%
[14]
  viability, T/C: 47.1%
[15]
  viability, T/C: 75.8%
[16]
  viability, T/C: 9.78%
[17]
  viability, T/C: 17.6%
[18]
  viability, T/C: 4.53%
[19]
  viability, T/C: 39.9%
[20]
  viability, T/C: 47.9%
[21]
  viability, T/C: 58.3%
[22]
  viability, T/C: 7.25%
[23]
  viability, T/C: 14.1%
[24]
  viability, T/C: 5.15%
[25]
  viability, T/C: 43.2%
[26]
  viability, T/C: 52.5%
[27]
  viability, T/C: 50.3%
[28]
  viability, T/C: 9.3%
[29]
  viability, T/C: 10.3%
[30]
  viability, T/C: 5.46%
[31]
  viability, T/C: 41%
[32]
  viability, T/C: 48.8%
[33]
  viability, T/C: 47.9%
[34]
  viability, T/C: 6.06%
[35]
  viability, T/C: 11.8%
[36]
  viability, T/C: 6.29%
